Data set [1] concerns the target SARS-CoV-2 Main Protease (SARS-CoV-2) (UniProt P0DTD1).
For data set [2] the target is unchanged. This is another data set of the same source.

One may read the inhibition as the change of the read-out against control, counted positive when it falls. As a reminder, the IC50 is the concentration that inhibits the measured activity by half. High values mean lower potency, low ones higher potency.

Structures are written as SMILES.

On to `C=CC(=O)N(c1ccc(C(C)OC)cc1)C(C(=O)Nc1ccc(Cl)cc1)c1cccnc1` (stereo not drawn), for which the relative solubility at 20 uM was determined as 0.84 and the relative solubility at 100 uM came to 0.76. The inhibition in data set [1] (20.0 µM) was found to be 12.3%. Besides, the inhibition in data set [1] (50.0 µM) amounted to 26.1%. In addition, in data set [2] (20.0 µM), the inhibition is 0%.
Regarding `CC(=O)N1CCN(Cc2cccc(C#N)c2)CC1`, the relative solubility at 20 uM is 1 and the relative solubility at 100 uM came out at 0.99. The inhibition in data set [1] (20.0 µM) was -0.339%. Moreover, the inhibition in data set [1] (50.0 µM) came out at 6.59%. Also, in data set [2] (20.0 µM), the inhibition is 0%.
Take `CSc1ccncc1NC(=O)Cc1ccc2c(c1)CCCC2`: the relative solubility at 20 uM worked out at 0.99 and the relative solubility at 100 uM is 0.67. Also, the inhibition in data set [1] (20.0 µM) was -1.16%. Further, in data set [1] (50.0 µM), the inhibition came to 11.6%. Moreover, the inhibition in data set [2] (50.0 µM) was determined as 0%.
`C=CC(=O)N1CCCC(N(CC2CCCCC2)C2CCC(O)CC2)C1` (stereo not drawn) returned a relative solubility at 20 uM of 1 and a relative solubility at 100 uM of 1. Moreover, in data set [1] (20.0 µM), the inhibition was -4.47%. In data set [1] (50.0 µM), the inhibition was -0.824%. Also, the inhibition in data set [2] (50.0 µM) came to 0%.
For `O=C(Nc1nncn1C1CC1)[C@@H]1CCOc2ccc(Cl)cc21` (stereo in doubt), the relative solubility at 20 uM worked out at 0.99 and the relative solubility at 100 uM came to 0.99. In addition, in data set [1] (20.0 µM), the inhibition is -7.38%. Further, the inhibition in data set [1] (50.0 µM) was 19.5%. In addition, the inhibition in data set [2] (50.0 µM) was -10.4%.
The compound `O=S1(=O)CCC(N2CCN(c3nc(-c4cccnc4)nc4ccccc34)CC2)C1` (stereo not drawn) gave a relative solubility at 20 uM of 1 and a relative solubility at 100 uM of 0.94. Besides, the inhibition in data set [1] (20.0 µM) was found to be 13%. The inhibition in data set [1] (50.0 µM) came out at 14.1%. Moreover, the inhibition in data set [2] (20.0 µM) came to 0%. For the same compound, in data set [2] (50.0 µM), the inhibition came to 0%.
Turning to `O=C1Nc2cc(Br)ccc2C1=O`, the relative solubility at 20 uM was found to be 1 and the relative solubility at 100 uM was determined as 1.01. For the same compound, the inhibition in data set [1] (20.0 µM) was -5.86%. In addition, the inhibition in data set [1] (50.0 µM) is -4.62%. The inhibition in data set [2] (50.0 µM) was found to be 23.8%.
The matching figures for `Cc1cccc(NC(=O)Cn2c(=O)oc3ccccc32)c1`: 0.99, 0.94, -20.4%, -5.83% and -9.03%.
For the compound `CC1CN(Cc2cccc(Cl)c2)CCN1C(=O)CCl` (stereo not drawn), the relative solubility at 20 uM turned out to be 0.99 and the relative solubility at 100 uM was 0.99. Moreover, the inhibition in data set [1] (20.0 µM) amounted to 88.3%. In data set [1] (50.0 µM), the inhibition turned out to be 93.9%. Also, the IC50 in data set [2] is 2080 nM. Besides, in data set [2] (20.0 µM), the inhibition worked out at 94.6%. Besides, the inhibition in data set [2] (50.0 µM) worked out at 100%.
On to `CC(C(=O)Nc1cccc(NC2CCCC2)c1)c1cnccn1` (stereo not drawn), for which the relative solubility at 20 uM was determined as 1 and the relative solubility at 100 uM was 0.98. For the same compound, in data set [1] (20.0 µM), the inhibition was -2.77%. Also, the inhibition in data set [1] (50.0 µM) was 0.913%. Also, the inhibition in data set [2] (20.0 µM) turned out to be 0%. In addition, in data set [2] (50.0 µM), the inhibition was -2.15%.
The compound `CCN(CC1COc2ccccc2O1)C(=O)c1cc(=O)[nH]c2ccc(Cl)cc12` (stereo not drawn) yielded a relative solubility at 20 uM of 0.95 and a relative solubility at 100 uM of 0.89. Moreover, the inhibition in data set [1] (20.0 µM) was 8.72%. Further, the inhibition in data set [1] (50.0 µM) was determined as 2.69%. For the same compound, the inhibition in data set [2] (50.0 µM) stood at 0%.
`C=CC(=O)N(c1ccc(C(C)(C)C)cc1)C(C(=O)NC1CC1)c1cccnc1` (stereo not drawn): the relative solubility at 20 uM is 1.01 and the relative solubility at 100 uM was determined as 1. The inhibition in data set [1] (20.0 µM) is 25.4%. Moreover, the inhibition in data set [1] (50.0 µM) turned out to be 33%. Further, the inhibition in data set [2] (20.0 µM) turned out to be 8.67%. In addition, the inhibition in data set [2] (50.0 µM) was found to be 33.3%.
Turning to `Cc1cc(C)c(C)c(S(=O)(=O)N2CCN(C(=O)c3cc[nH]c(=O)c3)CC2)c1C`, the relative solubility at 20 uM was found to be 0.99 and the relative solubility at 100 uM worked out at 0.98. Moreover, in data set [1] (20.0 µM), the inhibition is -1.5%. Also, the inhibition in data set [1] (50.0 µM) turned out to be 5.56%. Further, in data set [2] (50.0 µM), the inhibition turned out to be 0%.
The matching figures for `CS(=O)(=O)N(CCc1ccccc1)CC1CCN(C(=O)CCl)CC1`: 0.96, 0.89, 23.9%, 26.1% and 73.3%.
On to `NS(=O)(=O)c1ccc(N2CCC([C@@H]3CCCO3)CC2)cc1` (stereo in doubt), for which the relative solubility at 20 uM turned out to be 0.99 and the relative solubility at 100 uM is 1. The inhibition in data set [1] (50.0 µM) is -16%. The inhibition in data set [2] (20.0 µM) stood at 35%. Besides, the inhibition in data set [2] (50.0 µM) stood at 52.2%.
`CNS(=O)(=O)Cc1ccc2[nH]cc(CCN(C)C)c2c1` returned a relative solubility at 20 uM of 1 and a relative solubility at 100 uM of 1. The inhibition in data set [1] (20.0 µM) amounted to 4.66%. Also, the inhibition in data set [1] (50.0 µM) is 2.38%. For the same compound, the inhibition in data set [2] (20.0 µM) was found to be 0%.
As for `O=C(CCl)N1CCN(S(=O)(=O)c2ccsc2)CC1`, the relative solubility at 20 uM was determined as 1 and the relative solubility at 100 uM came out at 1. This compound also had an IC50 in data set [1] of 1630 nM. In addition, the inhibition in data set [1] (20.0 µM) came to 78.6%. Further, the inhibition in data set [1] (50.0 µM) stood at 73.7%. This compound registered an IC50 in data set [2] of 484 nM. Besides, the inhibition in data set [2] (20.0 µM) came out at 96.4%.
For `Cc1nc(CCn2c(C3CCC(=O)N3)nnc2N2CCOC(C)(C)C2)n[nH]1` (stereo not drawn), the relative solubility at 20 uM is 1 and the relative solubility at 100 uM is 1. Also, the inhibition in data set [1] (20.0 µM) was -0.233%. Also, the inhibition in data set [1] (50.0 µM) was found to be 2.23%. The inhibition in data set [2] (50.0 µM) came out at 4.69%.
`CN(Cc1ccc(OCc2cccs2)cc1)C(=O)Cn1nnc2ccccc21`: the relative solubility at 20 uM came to 0.56 and the relative solubility at 100 uM was -0.05. Also, the inhibition in data set [1] (20.0 µM) amounted to 2.49%. Also, in data set [1] (50.0 µM), the inhibition worked out at 10.2%. Also, the inhibition in data set [2] (20.0 µM) stood at 0%.
Regarding `C=CC(=O)N(c1ccc(N(C)C)c(C)c1)C(C(=O)Nc1ccccc1Br)c1cccnc1` (stereo not drawn), the relative solubility at 20 uM worked out at 0.86 and the relative solubility at 100 uM amounted to 0.79. In addition, in data set [1] (20.0 µM), the inhibition was 2.84%. Besides, the inhibition in data set [1] (50.0 µM) amounted to 8.13%. Moreover, the inhibition in data set [2] (20.0 µM) came out at 0%.
The matching figures for `C=CC(=O)N(c1ccc(SC)cc1)C(C(=O)Nc1ccc(OC)cc1)c1cccnc1` (stereo not drawn): 0.91, 0.77, 13.5%, 27% and 0%.
In the case of `C=CC(=O)N(c1ccc(N(C)C)c(C)c1)C(C(=O)Nc1ccc(Br)cc1)c1cccnc1` (stereo not drawn), the relative solubility at 20 uM stood at 0.84 and the relative solubility at 100 uM was 0.74. Besides, the inhibition in data set [1] (20.0 µM) was 3.45%. For the same compound, the inhibition in data set [1] (50.0 µM) stood at 3.43%. Moreover, the inhibition in data set [2] (20.0 µM) turned out to be 0%.
Compound `COc1cccc2c1OCC(NC(=O)c1cc(=O)[nH]c3cc(F)ccc13)C2` (stereo not drawn) came in with a relative solubility at 20 uM of 0.9 and a relative solubility at 100 uM of 0.86. For the same compound, in data set [1] (20.0 µM), the inhibition is -1.01%. Also, the inhibition in data set [1] (50.0 µM) was -0.175%. For the same compound, in data set [2] (50.0 µM), the inhibition is 0%.
For `C=CC(=O)N(c1ccc(C(C)(C)C)cc1)C(C(=O)Nc1ccccc1OC)c1cccnc1` (stereo not drawn), the relative solubility at 20 uM was 0.97 and the relative solubility at 100 uM came to 0.95. The inhibition in data set [1] (20.0 µM) was determined as 26.3%. Also, the inhibition in data set [1] (50.0 µM) was determined as 44.2%. In addition, the inhibition in data set [2] (20.0 µM) is 0%. Besides, the inhibition in data set [2] (50.0 µM) is 25.4%.
On to `O=C(C1CCN(c2ccncc2)CC1)N1CCS(=O)(=O)CC1`, for which the relative solubility at 20 uM came out at 1 and the relative solubility at 100 uM is 1. In addition, in data set [1] (50.0 µM), the inhibition was -27.4%. For the same compound, in data set [2] (20.0 µM), the inhibition turned out to be 19.7%. For the same compound, in data set [2] (50.0 µM), the inhibition was 42.9%.
The compound `C=CC(=O)N(c1ccc(C(C)(C)CC)cc1)C(C(=O)Nc1cccc(F)c1C)c1cccnc1` (stereo not drawn) yielded a relative solubility at 20 uM of 0.86 and a relative solubility at 100 uM of 0.72. For the same compound, the inhibition in data set [1] (20.0 µM) was 16.3%. Further, the inhibition in data set [1] (50.0 µM) was determined as 31.8%. For the same compound, in data set [2] (20.0 µM), the inhibition is 3.79%.
For `C=CC(=O)N(c1ccc(C2CCOC2)cc1)C(C(=O)NC(C)(C)C)c1cccnc1` (stereo not drawn), in that order: 1.01, 1.01, -11.9%, 4.28% and 0%.

These data come from the COVID Moonshot data (paper PMC11187573), “Identification of SARS-CoV-2 Mpro inhibitors through deep reinforcement learning for de novo drug design and computational chemistry approaches” (RSC Medicinal Chemistry, 2024).
